Measured values: the supplement of paper PMC10307832

Columns and labels:
Test in all cases: relative viability (nuclei count vs DMSO), 5 days (fraction); higher = more cells survive
Dabrafenib + Luminespib = compound: CC(C)(C)c1nc(-c2cccc(NS(=O)(=O)c3c(F)cccc3F)c2F)c(-c2ccnc(N)n2)s1 [Dabrafenib] + CCNC(=O)c1noc(-c2cc(C(C)C)c(O)cc2O)c1-c1ccc(CN2CCOCC2)cc1 [Luminespib] (partner 0.01 µM)
Method in brief: (§1)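 Relative viability divides the nuclei count in treated wells by that in vehicle wells. Lung cancer cell lines were seeded in 1536-well plates, dosed by pin tool the next day, and fixed and stained after 5 days in one step with final 0.05% Triton X-100, 1% formaldehyde and 1 ug/ml Hoechst. Dosing was a single drug or a fixed anchor-drug dose plus five library-drug doses (not always all listed) in √10 steps, and values are medians of duplicate plates imaged at 4×.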

Dabrafenib + Olaparib = compound: CC(C)(C)c1nc(-c2cccc(NS(=O)(=O)c3c(F)cccc3F)c2F)c(-c2ccnc(N)n2)s1 [Dabrafenib] + O=C(c1cc(Cc2n[nH]c(=O)c3ccccc23)ccc1F)N1CCN(C(=O)C2CC2)CC1 [Olaparib] (partner 8 µM)
Method in brief: as §1

VX-702 + Pictilisib = compound: NC(=O)c1ccc(N(C(N)=O)c2c(F)cccc2F)nc1-c1ccc(F)cc1F [VX-702] + CS(=O)(=O)N1CCN(Cc2cc3nc(-c4cccc5[nH]ncc45)nc(N4CCOCC4)c3s2)CC1 [Pictilisib] (partner 1 µM)
Method in brief: as §1

VX-702 + AZD7762 = compound: NC(=O)c1ccc(N(C(N)=O)c2c(F)cccc2F)nc1-c1ccc(F)cc1F [VX-702] + NC(=O)Nc1cc(-c2cccc(F)c2)sc1C(=O)N[C@H]1CCCNC1 [AZD7762] (partner 0.2 µM)
Method in brief: as §1

| Cell Line | relative viability (Dabrafenib + Luminespib; first compound 0.009487 µM) | relative viability (Dabrafenib + Luminespib; first compound 0.03 µM) | relative viability (Dabrafenib + Luminespib; first compound 0.09487 µM) | relative viability (Dabrafenib + Luminespib; first compound 0.3 µM) | relative viability (Dabrafenib + Olaparib; first compound 0.009487 µM) | relative viability (Dabrafenib + Olaparib; first compound 0.03 µM) | relative viability (Dabrafenib + Olaparib; first compound 0.09487 µM) | relative viability (Dabrafenib + Olaparib; first compound 0.3 µM) | relative viability (VX-702 + Pictilisib; first compound 0.02 µM) | relative viability (VX-702 + Pictilisib; first compound 0.2 µM) | relative viability (VX-702 + Pictilisib; first compound 0.6325 µM) | relative viability (VX-702 + Pictilisib; first compound 2 µM) | relative viability (VX-702 + AZD7762; first compound 0.02 µM) | relative viability (VX-702 + AZD7762; first compound 0.2 µM) | relative viability (VX-702 + AZD7762; first compound 0.6325 µM) | relative viability (VX-702 + AZD7762; first compound 2 µM) | relative viability (Dabrafenib + Luminespib; first compound 0.003 µM) | relative viability (Dabrafenib + Olaparib; first compound 0.003 µM) |
| --- | --- | --- | --- | --- | --- | --- | --- | --- | --- | --- | --- | --- | --- | --- | --- | --- | --- | --- |
| NCI-H596 | 1.03 | 0.691 | 0.885 | 0.927 | 0.68 | 0.675 | 0.651 | 0.752 | 0.398 | 0.246 | 0.392 | 0.389 | 1.1 | 1.03 | 1.12 | 1.09 | – | – |
| NCI-H23 | – | 0.225 | 0.195 | 0.226 | 0.312 | 0.3 | 0.292 | 0.329 | 0.506 | 0.424 | 0.464 | 0.652 | 0.294 | 0.35 | 0.305 | 0.208 | – | – |
| NCI-H650 | 0.832 | 0.688 | 0.56 | 0.461 | 0.381 | 0.341 | 0.189 | 0.287 | 0.745 | – | 0.821 | 1.05 | 0.943 | 0.894 | 0.936 | 1.16 | – | – |
| LCLC-103H | 1.01 | 0.923 | 0.897 | 1.01 | 0.733 | 0.687 | 0.801 | 0.747 | 0.638 | 0.621 | 0.666 | 0.613 | 0.76 | 0.816 | 0.825 | 0.873 | 0.971 | 0.716 |
| NCI-H441 | 0.317 | 0.389 | 0.461 | 0.347 | 0.609 | 0.609 | 0.334 | 0.588 | 0.503 | 0.492 | 0.352 | 0.494 | 1.25 | 1.08 | 1.13 | 1.02 | – | – |
| LK-2 | 0.187 | – | 0.153 | 0.157 | 0.706 | – | 0.498 | 0.796 | 0.457 | – | 0.385 | 0.594 | 0.312 | 0.234 | 0.343 | 0.292 | 0.185 | 0.737 |
| NCI-H2405 | 0.619 | – | 0.528 | 0.642 | 0.838 | 0.674 | 0.804 | 0.89 | 0.459 | 0.41 | 0.459 | 0.572 | 0.822 | 0.766 | 0.784 | 0.826 | – | – |
| HOP-62 | 0.878 | 0.977 | 0.795 | 0.872 | 0.297 | 0.388 | – | 0.386 | 0.852 | 0.652 | 0.597 | 0.683 | 0.95 | 0.409 | 1.08 | 0.465 | 0.936 | – |
